Data taken from US20060106064A1, “Butyrophenones and sigma-1 receptor antagonists protect against oxidative-stress” (University of North Texas Health Science Center at Fort …, priority 2004, published 2006).
Entries after “also recorded” stand apart in the source; their conditions may differ. Like-named read-outs stand apart in the source and are kept apart here.

Experiments:
HT-22 cells = assay: in vitro protection assay, glutamate-induced oxidative stress HT-22 cell model (Calcein AM cell survival)
human Sigma-1 receptor = target: T1, human Sigma-1 receptor (Homo sapiens, UniProt Q99720); assay: [3H]-(+)-pentazocine binding to MCF-7 cells stably expressing the cloned human Sigma-1 receptor; details: for affinity for the Sigma-1 receptor in words: FIG. 6
T1 construct: expressed in transfected cells
T1 sequence (Q99720 whole entry): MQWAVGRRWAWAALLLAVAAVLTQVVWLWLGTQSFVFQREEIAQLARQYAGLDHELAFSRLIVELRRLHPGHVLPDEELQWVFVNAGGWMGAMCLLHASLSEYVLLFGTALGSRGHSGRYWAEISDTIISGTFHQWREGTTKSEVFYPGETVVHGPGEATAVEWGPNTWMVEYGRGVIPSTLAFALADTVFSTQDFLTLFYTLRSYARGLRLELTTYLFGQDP

[1] = tested on: stroke (ICD-9 433, 434, 435)
NMDA receptors = details: cited from earlier work
[2] = tested on: tMCAO induced brain injury; assay: transient middle cerebral artery occlusion (tMCAO) ischemic stroke model, infarct volume by triphenyltetrazolium staining; format: in vivo, rat; details: 0.05 mg/kg acute, immediately after induction of 60 minute occlusion, ovariectomized female Sprague-Dawley rats, assessed 24 hrs after the stroke
[3] = tested on: ferric chloride-induced lipid peroxidation in rat brain membranes; assay: ferric chloride-induced lipid peroxidation in rat brain membranes (antioxidant activity); format: biochemical; details: even very high concentrations
Method: […]. Antioxidant activity was measured by the ability of compounds to prevent ferric chloride-induced lipid peroxidation in rat brain membranes. The antioxidant ZYC5 is a known antioxidant control. […]. In summary, in vitro protection against glutamate-induced oxidative stress in HT-22 cells is mediated by antagonism of Sigma-1 receptors.

[4] = read-out: Potency (EC50 ± SEM nM), Table 4
[5] = Table 2, receptor target screen
[6] = read-out: Potency (EC50 ± SEM), Table 2, receptor target screen
[7] = read-out: Potency (EC50 ± SEM), Table 5
[8] = Table 4, read-out: Affinity for the cloned Sigma-1 receptor (Ki ± SEM)
[9] = Mus musculus, HT-22, read-out: Potency (EC50 ± SEM, nM)
[10] = protection against oxidative stress induced by 20 mM glutamate, Table 1
[11] = patients with CABG in 1997, N = 11,444

SMILES	in vitro protection in words (HT-22 cells; FIGS. 2, 3 and 6)	Efficacy ± SEM (HT-22 cells; Table 4)	Efficacy ± SEM (HT-22 cells; [5])	EC50 (HT-22 cells; [9])	Efficacy ± SEM (HT-22 cells; [10])	further results
OC(CCCN1CCC(O)(c2ccc(Cl)cc2)CC1)c1ccc(F)cc1 (centres unmarked)	high potency protection	58 ± 5.6				EC50 (HT-22 cells; [4]): 12.9 ± 12.2 nM; affinity for the Sigma-1 receptor in words (human Sigma-1 receptor): high affinity
Clc1ccc2c(c1)C(N1CCNCC1)=Nc1ccccc1O2 [Amoxapine]			0			
CN1CCN(CCc2ccc(Cl)c(Cl)c2)CC1 [BD1063]		61 ± 7.5	61 ± 7.5			Efficacy ± SEM (HT-22 cells; Table 5): 61 ± 7.5; EC50 (HT-22 cells; [4]): 5.9 ± 3.5 nM; EC50 (HT-22 cells; [6]): 5.9 ± 3.5 nM; EC50 (HT-22 cells; [7]): 5.9 ± 3.5 nM; Ki (human Sigma-1 receptor; [8]): 3.1 ± 1.4 nM; Ki (human Sigma-1 receptor; Table 5, own value, read-out: Affinity for the Sigma-1 receptor (Ki)): 3.1 nM
O=C(CCCN1CCC(n2c(=O)[nH]c3ccccc32)CC1)c1ccc(F)cc1 [Benperidol, 1-[1-[4-(4-fluorophenyl)-4-oxo-butyl]-4-piperidyl]-3H-benzoimidazol-2-one]	do not provide potent protection	66 ± 23		1160 ± 498 nM		Ki (human Sigma-1 receptor): 252 ± 42 nM; affinity for the Sigma-1 receptor in words (human Sigma-1 receptor): nor do they have high affinity
O=C(CCCN1CCC(O)(c2ccc(Br)cc2)CC1)c1ccc(F)cc1 [Bromperidol, 4-[4-(4-bromophenyl)-4-hydroxy-1-piperidyl]-1-(4-fluorophenyl)-butan-1-one]	high potency protection	67 ± 9.8		0.95 ± 0.82 nM		affinity for the Sigma-1 receptor in words (human Sigma-1 receptor): high affinity; Ki (human Sigma-1 receptor; [8]): 1.2 ± 0.21 nM
O=C(CCCN1CCC(O)(c2ccc(Cl)cc2)CC1)c1ccc(Cl)cc1 [Chlorohaloperidol, 1-(4-chlorophenyl)-4-[4-(4-chlorophenyl)-4-hydroxy-1-piperidyl]-butan-1-one]	high potency protection	64 ± 3.4		4.3 ± 1.7 nM		Ki (human Sigma-1 receptor): 1.5 ± 0.36 nM; affinity for the Sigma-1 receptor in words (human Sigma-1 receptor): high affinity
CN(C)CCCN1c2ccccc2Sc2ccc(Cl)cc21 [Chlorpromazine]				> 1000 nM	0	
CN(C)CC/C=C1/c2ccccc2Sc2ccc(Cl)cc21 [Chlorprothixene]				> 1000 nM	0	
CN1CCN(C2=Nc3cc(Cl)ccc3Nc3ccccc32)CC1 [Clozapine]					0	
CC(=O)CC(c1ccccc1)c1c(O)c2ccccc2oc1=O (centres unmarked) [Coumadin]						B (logistic regression coefficient for stroke) ([1]; full model N = 145,576): 1.018; Odds Ratio for stroke ([1]; full model N = 145,576): 2.769; times more likely to have a stroke during the year ([1]; general model): about 2.7 times; B (logistic regression coefficient for stroke) [1, 11]: 0.849; Odds Ratio for stroke [1, 11]: 2.337
O=C(CCCN1CC=C(n2c(=O)[nH]c3ccccc32)CC1)c1ccc(F)cc1 [Droperidol, 1-[1-[4-(4-fluorophenyl)-4-oxo-butyl]-3,6-dihydro-2H-pyridin-4-yl]-3H-benzoimidazol-2-one]	do not provide potent protection	100		5270 ± 2230 nM		
OCCN1CCN(CCCN2c3ccccc3Sc3ccc(C(F)(F)F)cc32)CC1 [Flupenazine]					0	EC50 (HT-22 cells; read-out: Potency (EC50 ± SEM), protection against oxidative stress induced by 20 mM glutamate, Table 1): > 1000 nM
O=C(CCCN1CCC(O)(c2ccc(Cl)cc2)CC1)c1ccc(F)cc1 [Haloperidol, 4-[4-(4-chlorophenyl)-4-hydroxy-1-piperidyl]-1-(4-fluorophenyl)-butan-1-one]	strong neuroprotection; also recorded: high potency protection	65 ± 2.5			65 ± 2.5	affinity of NMDA receptors for haloperidol (NMDA receptors): > 1 µM; B (logistic regression coefficient for stroke) ([1]; full model N = 145,576): −0.464; B (logistic regression coefficient for stroke) [1, 11]: −0.926; decrease of risk of stroke ([1]; patients with CABG surgery in 1997, significant only at the 0.07 level): about 60%; reduction in infarct volume [2]: 50%; antioxidant activity (prevention of lipid peroxidation) [3]: failed to prevent ferric chloride-induced peroxidation of brain lipids
O=C(c1ccc(F)cc1)C1CCN(CCn2c(=O)[nH]c3ccccc3c2=O)CC1 [Ketanserin]			0	> 1000 nM		
OC1(c2ccc(Cl)cc2)CCN(Cc2c[nH]c3ccccc23)CC1 [L741626]			0			EC50 (HT-22 cells; [6]): > 1000 nM
Cc1c(C2CCN(CCc3ccccc3)CC2)noc1-c1ccc(Cl)cc1 [L741742, 5-(4-Chlorophenyl)-4-methyl-3-(l-(2-phenylethyl)piperidin-4-yl)isoxazole]		61 ± 2.7	61 ± 2.7			EC50 (HT-22 cells; read-out: In vitro Protective Potency (EC50 ± SEM), Table 3): 1.2 ± 0.82 nM; EC50 (HT-22 cells; [4]): 1.2 ± 0.82 nM; EC50 (HT-22 cells; [6]): 1.2 ± 0.82 nM; Ki (human Sigma-1 receptor; [8]): 4.8 ± 0.41 nM
Clc1ccc(N2CCN(Cc3c[nH]c4ncccc34)CC2)cc1 [L745870, 3-((4-(4-Chlorophenyl)piperazin-1-yl)-methyl)-1H-pyrrolo-2,3-b-pyridine]						Efficacy ± SEM (HT-22 cells): 50 ± 9.6; EC50 (HT-22 cells; read-out: In vitro Protective Potency (EC50 ± SEM)): 895 ± 736 nM; EC50 (HT-22 cells; read-out: Potency (EC50 ± SEM nM)): 895 ± 736 nM; EC50 (HT-22 cells; read-out: Potency (EC50 ± SEM)): 895 ± 736 nM
CN1CCN(C2=Nc3ccccc3Oc3ccc(Cl)cc32)CC1 [Loxapine]				> 1000 nM	0	
CN1CCN2c3ncccc3Cc3ccccc3C2C1 (centres unmarked) [Mirtazapine]			0	> 1000 nM		
Cc1cccc(C(=O)NCN2CCN(c3ccccc3C#N)CC2)c1 [PD168077]			0			EC50 (HT-22 cells; [6]): > 1000 nM
O=C(OCCN1CCOCC1)C1(c2ccccc2)CCCCC1 [PRE-084]			0			EC50 (HT-22 cells; [6]): > 1000 nM; EC50 (HT-22 cells; [7]): > 1000 nM
OC1(c2ccc(Cl)c(C(F)(F)F)c2)CCN(CCCC(c2ccc(F)cc2)c2ccc(F)cc2)CC1 [Penfluridol, 1-[4,4-bis(4-fluorophenyl)butyl]-4-[4-chloro-3-(trifluoromethyl)phenyl]-piperidin-4-ol]	moderate protective potency	80 ± 20				EC50 (HT-22 cells; [4]): 350 ± 246 nM; affinity for the Sigma-1 receptor in words (human Sigma-1 receptor): moderate affinity; Ki (human Sigma-1 receptor; [8]): 53 ± 15 nM
OCCN1CCN(CCCN2c3ccccc3Sc3ccc(Cl)cc32)CC1 [Perphenazine]				> 1000 nM	0	
O=c1[nH]c2ccccc2n1C1CCN(CCCC(c2ccc(F)cc2)c2ccc(F)cc2)CC1 [Pimozide]			0	> 1000 nM		EC50 (HT-22 cells; Mus musculus, HT-22, read-out: In vitro Protective Potency (EC50 ± SEM, nM)): > 1000 nM
Cc1nc2n(c(=O)c1CCN1CCC(c3noc4cc(F)ccc34)CC1)CCCC2 [Risperidone]					0	
CCN1CCC[C@H]1CNC(=O)c1c(O)c(Cl)cc(Cl)c1OC [S-(−)-Raclopride]	no neuroprotection		0	> 1000 nM	0	EC50 (HT-22 cells; [6]): > 1000 nM
CCC(Oc1ccc(Cl)cc1)C(=O)OC1CC2CCC(C1)N2C (centres unmarked) [SM-21]	no protective effect		0			EC50 (HT-22 cells; [6]): > 1000 nM; EC50 (HT-22 cells; [7]): > 1000 nM
O=C(CCCN1CCC2(CC1)C(=O)NCN2c1ccccc1)c1ccc(F)cc1 [Spiperone, 8-[4-(4-fluorophenyl)-4-oxo-butyl]-1-phenyl-1,3,8-triazaspiro[4.5]decan-4-one]	do not provide potent protection	100				affinity for the Sigma-1 receptor in words (human Sigma-1 receptor): nor do they have high affinity; Ki (human Sigma-1 receptor; [8]): 1050 ± 334 nM
CSc1ccc2c(c1)N(CCC1CCCCN1C)c1ccccc1S2 (centres unmarked) [Thioridazine]					0	
O=C(CCCN1CCC(O)(c2cccc(C(F)(F)F)c2)CC1)c1ccc(F)cc1 [Trifluperidol, 1-(4-fluorophenyl)-4-[4-hydroxy-4-[3-(trifluoromethyl)phenyl]-1-piperidyl]-butan-1-one]				7.5 ± 6.3 nM		Efficacy ± SEM (HT-22 cells): 55 ± 3.0; in vitro protection in words (HT-22 cells): high potency protection; affinity for the Sigma-1 receptor in words (human Sigma-1 receptor): high affinity
